Reference: the CheMixHub viscosity set

Assay: xn = mol fraction of the nth substance listed
Settings: 101.3 kPa

N#C[S-].[Na+] + O
viscosity [mPa·s]
Settings | 293.15 K | 298.15 K | 303.15 K | 308.15 K | 313.15 K | 318.15 K | 323.15 K
x1 = 0.000641 | 1.046 | 0.938 | 0.839 | 0.759 | 0.689 | 0.629 | 0.577
x1 = 0.0118 | 1.037 | 0.943 | 0.835 | 0.771 | 0.699 | 0.638 | 0.589
x1 = 0.01737 | 1.104 | 0.985 | 0.887 | 0.805 | 0.732 | 0.672 | 0.618
x1 = 0.03707 | 1.261 | 1.128 | 1.016 | 0.92 | 0.834 | 0.766 | 0.706
x1 = 0.05053 | 1.367 | 1.221 | 1.124 | 1.015 | 0.919 | 0.834 | 0.776
x1 = 0.07571 | 1.549 | 1.387 | 1.25 | 1.132 | 1.03 | 0.945 | 0.87
x1 = 0.09639 | 1.81 | 1.613 | 1.442 | 1.308 | 1.19 | 1.091 | 1.003
x1 = 0.1127 | 2.193 | 1.939 | 1.732 | 1.56 | 1.408 | 1.295 | 1.18
x1 = 0.1223 | 2.333 | 2.061 | 1.828 | 1.653 | 1.493 | 1.356 | 1.248
x1 = 0.1239 | 2.378 | 2.099 | 1.873 | 1.679 | 1.52 | 1.384 | 1.27
x1 = 0.1334 | 2.641 | 2.321 | 2.06 | 1.842 | 1.668 | 1.505 | 1.374
x1 = 0.1416 | 2.851 | 2.501 | 2.214 | 1.977 | 1.779 | 1.609 | 1.468
x1 = 0.1532 | 3.196 | 2.792 | 2.461 | 2.191 | 1.963 | 1.777 | 1.619
x1 = 0.1683 | 3.749 | 3.258 | 2.858 | 2.527 | 2.259 | 2.049 | 1.837
x1 = 0.1834 | 4.424 | 3.802 | – | – | – | – | –
